Assay results as given in patent US12077503B2, “Substituted cyclic amides and their use as herbicides” (FMC CORPORATION, priority 2015, dated 2024).

How the values were obtained:
Type in all cases: in vivo
[1] = test system: nightshade (eastern black nightshade, Solanum ptycanthum); experiment: Test E preemergence; details: scale 0 to 100
Summary of the method: (§1)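 Compound in non-phytotoxic solvent with surfactant is applied preemergence to silt loam soil after sowing, or postemergence to plants 2 to 18 cm tall in peat-based medium. Plants grow in a greenhouse for 14 to 21 d. Each species is then compared with controls and scored visually, 0 (no effect) to 100 (complete control).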

[2] = test system: ragweed (common ragweed, Ambrosia elatior); experiment: Test E preemergence; details: scale 0 to 100
Summary of the method: as §1

[3] = test system: velvetleaf (Abutilon theophrasti); experiment: Test E preemergence; details: scale 0 to 100
Summary of the method: as §1

[4] = test system: barnyardgrass (Echinochloa crus-galli); experiment: Test E preemergence; details: scale 0 to 100
Summary of the method: as §1

[5] = test system: Kochia (Kochia scoparia); experiment: Test E preemergence; details: scale 0 to 100
Summary of the method: as §1

[6] = test system: barnyardgrass (Echinochloa crus-galli); experiment: Test C flooded paddy test; details: Flood, 0 is no effect, 100 is complete control
Summary of the method: (§2)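 Scores express visual response relative to untreated controls, 0 meaning no effect and 100 complete control, assessed 13 to 15 d after treatment in the greenhouse. Compound went into water flooded 3 cm above soil around 2-leaf plants.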

[7] = test system: sedge, umbrella (small-flower umbrella sedge, Cyperus difformis); experiment: Test C flooded paddy test; details: Flood, 0 is no effect, 100 is complete control
Summary of the method: as §2

[8] = test system: rice (Oryza sativa); experiment: Test C flooded paddy test; details: Flood, 0 is no effect, 100 is complete control
Summary of the method: as §2

[9] = test system: ducksalad (Heteranthera limosa); experiment: Test C flooded paddy test; details: Flood, 0 is no effect, 100 is complete control
Summary of the method: as §2

[10] = test system: radish, wild (wild radish, Raphanus raphanistrum); experiment: Test D preemergence; details: scale 0 to 100
Summary of the method: (§3)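 Test chemicals, formulated in a non-phytotoxic solvent blend including surfactant, are applied preemergence to seeded silt loam soil. Response is judged visually against controls after approximately 21 d in a controlled environment, on a scale where 0 is no effect and 100 is complete control.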

[11] = test system: pigweed (Amaranthus retroflexus); experiment: Test D preemergence; details: scale 0 to 100
Summary of the method: as §3

[12] = test system: deadnettle (henbit deadnettle, Lamium amplexicaule); experiment: Test D preemergence; details: scale 0 to 100
Summary of the method: as §3

[13] = test system: lambsquarters (Chenopodium album); experiment: Test D preemergence; details: scale 0 to 100
Summary of the method: as §3

**Q.** How did the “Plant response rating: Nightshade” value ([1]; 31 g ai/ha) turn out when CN1CC(c2cccc(C(F)(F)F)c2)C(C(=O)Nc2ccccc2S(C)(=O)=O)C1=O (stereo not drawn) [Compound 637] was run?
**A.** 0

**Q.** And the “Plant response rating: Nightshade” value ([1]; 62 g ai/ha)?
**A.** 15

**Q.** And the “Plant response rating: Nightshade” value ([1]; 125 g ai/ha)?
**A.** 25

**Q.** And the “Plant response rating: Nightshade” value ([1]; 250 g ai/ha)?
**A.** 40

**Q.** What about the “Plant response rating: Ragweed” value ([2]; 31 g ai/ha) of the same compound?
**A.** 0

**Q.** And the “Plant response rating: Ragweed” value ([2]; 62 g ai/ha)?
**A.** 0

**Q.** And the “Plant response rating: Ragweed” value ([2]; 125 g ai/ha)?
**A.** 20

**Q.** What about the “Plant response rating: Ragweed” value ([2]; 250 g ai/ha) of the same compound?
**A.** 85

**Q.** And the “Plant response rating: Velvetleaf” value ([3]; 31 g ai/ha)?
**A.** 0

**Q.** What about the “Plant response rating: Velvetleaf” value ([3]; 62 g ai/ha) of the same compound?
**A.** 0

**Q.** And the “Plant response rating: Velvetleaf” value ([3]; 125 g ai/ha)?
**A.** 30

**Q.** And the “Plant response rating: Velvetleaf” value ([3]; 250 g ai/ha)?
**A.** 35

**Q.** And the “Plant response rating: Barnyardgrass” value ([4]; 31 g ai/ha)?
**A.** 85

**Q.** What about the “Plant response rating: Barnyardgrass” value ([4]; 62 g ai/ha) of the same compound?
**A.** 70

**Q.** What about the “Plant response rating: Barnyardgrass” value ([4]; 125 g ai/ha) of the same compound?
**A.** 80

**Q.** And the “Plant response rating: Barnyardgrass” value ([4]; 250 g ai/ha)?
**A.** 95

**Q.** What about the “Plant response rating: Kochia” value ([5]; 31 g ai/ha) of the same compound?
**A.** 0

**Q.** And the “Plant response rating: Kochia” value ([5]; 62 g ai/ha)?
**A.** 40

**Q.** What about the “Plant response rating: Kochia” value ([5]; 125 g ai/ha) of the same compound?
**A.** 90

**Q.** And the “Plant response rating: Kochia” value ([5]; 250 g ai/ha)?
**A.** 90

**Q.** What about the “Plant response rating (scale of 0 to 100), Barnyardgrass” value ([6]; 31 g ai/ha) of the same compound?
**A.** 35

**Q.** What about the “Plant response rating (scale of 0 to 100), Barnyardgrass” value ([6]; 62 g ai/ha) of the same compound?
**A.** 40

**Q.** What about the “Plant response rating (scale of 0 to 100), Barnyardgrass” value ([6]; 125 g ai/ha) of the same compound?
**A.** 60

**Q.** What about the “Plant response rating (scale of 0 to 100), Barnyardgrass” value ([6]; 250 g ai/ha) of the same compound?
**A.** 75

**Q.** What about the “Plant response rating (scale of 0 to 100), Sedge, Umbrella” value (“Plant response rating … Umbrella” for short) ([7]; 31 g ai/ha) of the same compound?
**A.** 0

**Q.** What about the “Plant response rating … Umbrella” value ([7]; 62 g ai/ha) of the same compound?
**A.** 0

**Q.** And the “Plant response rating … Umbrella” value ([7]; 125 g ai/ha)?
**A.** 0

**Q.** What about the “Plant response rating … Umbrella” value ([7]; 250 g ai/ha) of the same compound?
**A.** 0

**Q.** What about the “Plant response rating (scale of 0 to 100), Rice” value (from here on “Plant response rating … Rice”) ([8]; 31 g ai/ha) of the same compound?
**A.** 15

**Q.** What about the “Plant response rating … Rice” value ([8]; 62 g ai/ha) of the same compound?
**A.** 15

**Q.** What about the “Plant response rating … Rice” value ([8]; 125 g ai/ha) of the same compound?
**A.** 15

**Q.** And the “Plant response rating … Rice” value ([8]; 250 g ai/ha)?
**A.** 45

**Q.** What about the “Plant response rating (scale of 0 to 100), Ducksalad” value (shortened to “Plant response rating … Ducksalad”) ([9]; 31 g ai/ha) of the same compound?
**A.** 30

**Q.** And the “Plant response rating … Ducksalad” value ([9]; 62 g ai/ha)?
**A.** 45

**Q.** And the “Plant response rating … Ducksalad” value ([9]; 125 g ai/ha)?
**A.** 70

**Q.** What about the “Plant response rating … Ducksalad” value ([9]; 250 g ai/ha) of the same compound?
**A.** 90

**Q.** What about the “Plant response rating: Radish, Wild” value ([10]; 62 g ai/ha) of the same compound?
**A.** 20

**Q.** What about the “Plant response rating: Radish, Wild” value ([10]; 125 g ai/ha) of the same compound?
**A.** 20

**Q.** What about the “Plant response rating: Radish, Wild” value ([10]; 250 g ai/ha) of the same compound?
**A.** 90

**Q.** And the “Plant response rating: Pigweed” value ([11]; 31 g ai/ha)?
**A.** 20

**Q.** And the “Plant response rating: Pigweed” value ([11]; 62 g ai/ha)?
**A.** 90

**Q.** And the “Plant response rating: Pigweed” value ([11]; 125 g ai/ha)?
**A.** 100

**Q.** What about the “Plant response rating: Pigweed” value ([11]; 250 g ai/ha) of the same compound?
**A.** 98

**Q.** And the “Plant response rating: Deadnettle” value ([12]; 31 g ai/ha)?
**A.** 0

**Q.** And the “Plant response rating: Deadnettle” value ([12]; 62 g ai/ha)?
**A.** 0

**Q.** And the “Plant response rating: Deadnettle” value ([12]; 125 g ai/ha)?
**A.** 25

**Q.** What about the “Plant response rating: Deadnettle” value ([12]; 250 g ai/ha) of the same compound?
**A.** 65

**Q.** What about the “Plant response rating: Lambsquarters” value ([13]; 31 g ai/ha) of the same compound?
**A.** 50

**Q.** What about the “Plant response rating: Lambsquarters” value ([13]; 62 g ai/ha) of the same compound?
**A.** 60

**Q.** What about the “Plant response rating: Lambsquarters” value ([13]; 125 g ai/ha) of the same compound?
**A.** 40

**Q.** And the “Plant response rating: Lambsquarters” value ([13]; 250 g ai/ha)?
**A.** 75
